Read-outs that look alike come from different tables or passages of the source.
Key:
[1] = test system: human plasma; experiment: Plasma protein binding, human plasma (equilibrium dialysis); assay type: in vitro ADME
Excerpt: J. Plasma Protein Binding
The pharmacokinetic and pharmacodynamic properties of drugs are largely a function of the reversible binding of drugs to plasma or serum proteins such as albumin and α1-acid glycoprotein. In general, only unbound drug is available for diffusion or transport across cell membranes, and for interaction at the pharmacological target. On the other hand, drugs with low plasma protein binding generally have large volumes of distribution and rapid clearance since only unbound drug is available for glomerular filtration and, in some cases, hepatic clearance. Thus, the extent of plasma protein binding can influence efficacy, distribution and elimination. The ideal range for plasma protein binding is in the range of 87-98% for most drug products.
Protein binding studies were performed using human plasma. Briefly, 96-well microplates were used to incubate various concentrations of the test article for 60 min at 37° C. Bound and unbound fractions are separated by equilibrium dialysis, where the concentration remaining in the unbound fraction is quantified by LC-MS or LC-MS-MS analysis. […].
The table below presents protein binding data for representative compounds of the present invention in both human and rat plasma.

[2] = test system: fasted rats; experiment: Gastric emptying in fasted rat model, standard method E; assay type: in vivo; conditions: average where repeated
Description: E. Gastric Emptying in Fasted Rat Model
To examine the effects of compounds of the invention in a model for gastroparesis, compounds were evaluated for possible effects on gastric emptying in fasted rats. This model is used to determine the potential of compounds of the invention to promote motility in fasted rats.
• 1. Overnight-fasted rats (male, Wistar, 200 g, n=5/group) were given a meal (2 mL) of methylcellulose (2%) by intragastric gavage. The meal was labeled with phenol red (0.05%). • 2. Test articles (dosed at various concentrations, typically 1, 3, 10, 30 mg/kg), vehicle and positive control (metoclopramide, a 5-HT ligand and prokinetic agent currently prescribed for the treatment of GI disorders, including gastroparesis) were administered by oral gavage immediately after the meal (time=0). • 3. […] Total phenol red remaining in the stomach was quantified by a colorimetric method at 560 nm. • 5. A 30% or more increase in gastric emptying (as compared to the vehicle control) was considered significant. • 6. One-way ANOVA, Dunnet's post-hoc statistical test was applied Results
The effects of representative compounds of the invention in the rat gastric emptying model described in standard method E are provided in the following table. In cases where an experiment was conducted multiple times, the average of the individual results is presented.

[3] = molecular target: human growth hormone secretagogue receptor (hGHS-R1a) (Homo sapiens, UniProt Q92847); experiment: Competitive radioligand binding assay (ghrelin receptor), standard method A
[4] = test system: rat plasma; experiment: Plasma protein binding, rat plasma; assay type: in vitro ADME
[5] = molecular target: GHS-R1a receptor (human ghrelin receptor) (Homo sapiens, UniProt Q92847); experiment: Aequorin functional assay (ghrelin receptor), standard method B; assay type: cell-based
Excerpt: B. Aequorin Functional Assay (Ghrelin Receptor)
See also U.S. patent application Ser. Nos. 11/149,512 and 11/149,731. (LePoul, E.; et al. J. Biomol. Screen. 2002, 7, 57-65; Bednarek, M. A.; et al. J. Med. Chem. 2000, 43, 4370-4376; Palucki, B. L.; et al. Bioorg. Med. Chem. Lett. 2001, 11, 1955-1957.) Functional activity at the gherlin receptor for representative compounds of the present invention is presented in the Examples.

[6] = Pharmacokinetic analysis (oral bioavailability, elimination half-life) in the rat; assay type: in vivo; conditions: oral administration, 8 mg/kg dose, HPLC-MS
Excerpt: D. Pharmacokinetic Analysis of Representative Compounds of the Invention
The pharmacokinetic behavior of compound of the invention can be ascertained by methods well known to those skilled in the art. (Wilkinson, G. R. “Pharmacokinetics: The Dynamics of Drug Absorption, Distribution, and Elimination” in Goodman & Gilman's The Pharmacological Basis of Therapeutics, Tenth Edition, Hardman, J. G.; Limbird, L. E., Eds., McGraw Hill, Columbus, Ohio, 2001, Chapter 1.) The following method was used to investigate the pharmacokinetic parameters (elimination half-life, total plasma clearance, etc.) for intravenous, subcutaneous and oral administration of compounds of the present invention. See also U.S. patent application Ser. No. 11/149,512 and Ser. No. 11/149,731 and Intl. Pat. Appl. No. PCT/US2007/017905.
The table below presents oral bioavailability and elimination half-life data in the rat for representative compounds of the present invention. The parameters were determined by HPLC-MS after oral administration of an 8 mg/kg dose of the compound, except for compound 822 where a 2 mg/kg dose was used.

[7] = binding activity at the human ghrelin receptor, standard method A
[8] = functional activity at the human ghrelin receptor, standard method B (Aequorin)

Sequence of human growth hormone secretagogue receptor (hGHS-R1a) (Q92847 whole entry): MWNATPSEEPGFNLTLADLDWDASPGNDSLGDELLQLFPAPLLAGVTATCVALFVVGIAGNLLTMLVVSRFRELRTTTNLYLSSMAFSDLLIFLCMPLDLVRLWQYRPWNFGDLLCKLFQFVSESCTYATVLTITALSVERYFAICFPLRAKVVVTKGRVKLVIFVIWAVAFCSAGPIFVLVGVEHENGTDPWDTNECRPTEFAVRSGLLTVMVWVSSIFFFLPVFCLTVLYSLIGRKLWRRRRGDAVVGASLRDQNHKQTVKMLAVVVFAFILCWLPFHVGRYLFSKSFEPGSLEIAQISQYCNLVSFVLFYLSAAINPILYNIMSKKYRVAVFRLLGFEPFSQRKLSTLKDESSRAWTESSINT
Sequence of GHS-R1a receptor (human ghrelin receptor) (Q92847 whole entry): as above

SMILES	Percent Increase in Gastric Emptying After Oral Administration ([2]; dose 3 mg/kg) [%]	Ki [3, 7] [nM]	EC50 [5, 8] [nM]	Elimination Half-life (t1/2, rat, min) [6] [min]	Oral Bioavailability (rat, % F) [6] [% F]	also measured
CC1CNC(C2CC2)C(=O)N(C)C(C)C(=O)NC(Cc2ccc(O)c(F)c2)C(=O)NCCCC2CCCCC2O1 (mixture of isomers) [Compound 832]	13	≤ 1				Human Plasma Protein Binding (%) ([1]; test concentration 3 μg/mL): 88.9%; Rat Plasma Protein Binding (%) ([4]; test concentration 3 μg/mL): 97.3%
CC1CNC(C2CC2)C(=O)N(C)C(C)C(=O)NC(CC(C)(C)C)C(=O)NCCCC2CCCCC2O1 (mixture of isomers) [Compound 833]	6	≤ 10				Human Plasma Protein Binding (%) ([1]; test concentration 3 μg/mL): 77.4%; Rat Plasma Protein Binding (%) ([4]; test concentration 3 μg/mL): 94.0%
CC(C)C[C@H]1NC(=O)[C@@H](C)N(C)C(=O)[C@H](C2CC2)NC[C@H]2CCc3cccc(c3O2)CCCNC1=O [Compound 802]	11	≤ 100	≤ 100	160	26	Human Plasma Protein Binding (%) ([1]; test concentration 1 μg/mL): 93.4%; Percent Increase in Gastric Emptying After Oral Administration ([2]; dose 1 mg/kg): 12%; Percent Increase in Gastric Emptying After Oral Administration ([2]; dose 10 mg/kg): 26%; Rat Plasma Protein Binding (%) ([4]; test concentration 1 μg/mL): 99.8%
C[C@@H]1CN[C@@H](C2CC2)C(=O)N(C)[C@H](C)C(=O)N[C@H](Cc2ccc(O)cc2)C(=O)N[C@@H](C)CCc2ccccc2O1 [Compound 808]	37	≤ 100		238	18	Human Plasma Protein Binding (%) ([1]; test concentration 5 μg/mL): 99.9%; Percent Increase in Gastric Emptying After Oral Administration ([2]; dose 1 mg/kg): 18%; Percent Increase in Gastric Emptying After Oral Administration ([2]; dose 10 mg/kg): 40%; Rat Plasma Protein Binding (%) ([4]; test concentration 5 μg/mL): 89.2%
CC(C)CC1NC(=O)C(C)N(C)C(=O)C(C2CC2)NC(C)C(C)Oc2ccccc2CCCNC1=O (stereo not shown) [Compound 819]	21	≤ 10		116	12	Human Plasma Protein Binding (%) ([1]; test concentration 3 μg/mL): 95.2%; Percent Increase in Gastric Emptying After Oral Administration ([2]; dose 1 mg/kg): 9%; Percent Increase in Gastric Emptying After Oral Administration ([2]; dose 10 mg/kg): 18%; Rat Plasma Protein Binding (%) ([4]; test concentration 3 μg/mL): 98.2%
C[C@@H]1CN[C@@H](C2CC2)C(=O)N(C)[C@H](C)C(=O)N[C@H](Cc2ccc(Cl)cc2)C(=O)NCCCc2ccc(F)cc2O1 [Compound 877]					15	EC50 [5]: ≤ 50 nM; half-life ([6]; plasma, read-out: Elimination Half-life (t1/2, rat, min)): 255 min; Ki [3]: ≤ 100 nM
CC(C)C[C@H]1NC(=O)[C@@H](C)N(C)C(=O)[C@H](C2CC2)NC[C@@H](C)Oc2ccccc2CCCNC1=O [Compound 968]		≤ 100	≤ 400	103	26	
C[C@@H]1CN[C@@H](C2CC2)C(=O)N(C)[C@H](C)C(=O)N[C@H]([C@H](C)c2ccc(F)cc2)C(=O)NCCCc2ccccc2O1 [Compound 1018]		≤ 100	≤ 400			
C[C@@H]1CNC(=O)[C@@H](Cc2ccc(F)cc2)NC(=O)[C@@H](C)N(C)C(=O)[C@H](C2CC2)NC[C@@H](C)Oc2ccccc2C1 [Compound 1033]		≤ 100	≤ 100			
CC1CNC(C2CC2)C(=O)N(C)C(C)C(=O)NC(CC(C)(C)C)C(=O)NCCCc2ccccc2O1 (stereo not shown) [Compound 1043]		≤ 100	≤ 100			
CC(C)[C@@H](O)[C@H]1NC(=O)[C@@H](C)N(C)C(=O)[C@H](C2CC2)NC[C@@H](C)Oc2ccccc2CCCNC1=O [Compound 1058]		≤ 100	≤ 100			
CC(C)C[C@H]1NC(=O)[C@@H](C)N(C)C(=O)[C@H](C2CCCCC2)NC[C@@H](C)Oc2cccnc2CCCNC1=O [Compound 1061]		≤ 100	≤ 100	23	4	
C[C@@H]1CN[C@@H](C2CCCCC2)C(=O)N(C)[C@H](C)C(=O)N[C@H](Cc2ccc(O)cc2)C(=O)NCCCc2ncccc2O1 [Compound 1062]		≤ 10	≤ 50			
CC1C(=O)NC(Cc2ccc(O)cc2)C(=O)NCCCC2CCCCC2OCCNC(C2CC2)C(=O)N1C (stereo not shown) [Compound 1118]		≤ 10				Human Plasma Protein Binding (%) ([1]; test concentration 3 μg/mL): 92.8%; Rat Plasma Protein Binding (%) ([4]; test concentration 3 μg/mL): 95.5%

Source: US10258602B2 (Ocera Therapeutics, Inc., priority 2007, dated 2019)
